This note sets out measurements from ChEMBL document CHEMBL4842341, “Discovery of IACS-9779 and IACS-70465 as Potent Inhibitors Targeting Indoleamine 2,3-Dioxygenase 1 (IDO1) Apoenzyme” (J Med Chem, 2021).

Series [1] can be described thus: Drug concentration in tumor of NSG mouse xenografted with human SKOV3 cells at 3 mg/kg, po QD measured at 24 hrs post dose. The conditions noted are these: read-out: Drug uptake. Type of series: ADME, organism-based, Neoplasm, SK-OV-3. In general terms: In xenograft studies the graft and the host belong to different species.
Series [2] can be described thus: Drug concentration in plasma of NSG mouse xenografted with human SKOV3 cells at 3 mg/kg, po QD measured at 24 hrs post dose. Type of series: ADME, organism-based, SK-OV-3.
The nature of series [3]: in vitro. The conditions noted are these: human, liver microsomes.
Series [4] can be described thus: Drug concentration in tumor of NSG mouse xenografted with human SKOV3 cells at 125 mg/kg, po BID measured after 12 hrs by LC-MS analysis. Type of series: ADME, organism-based, Neoplasm, SK-OV-3. The conditions noted are these: read-out: Drug uptake.
Series [5] can be described thus: Drug concentration in plasma of NSG mouse xenografted with human SKOV3 cells at 125 mg/kg, po BID measured after 12 hrs by LC-MS analysis. Type of series: ADME, organism-based, SK-OV-3.
Series [6] in a line: AUC in rat plasma at 250 mg/kg, po QD administered for 7 days. The class given is ADME, organism-based. Also noted: dose 250 mg/kg, time 7 day.
A short description of series [7]: in vivo. Particulars: CD-1, mouse, iv, 0.3 mg/kg.
Series [8] can be described thus: in vivo. The conditions noted are these: CD-1, mouse, iv, 0.3 mg/kg. The source holds these as a separate data set.
A short description of series [9]: in vivo. The conditions noted are these: CD-1, mouse, iv, 0.3 mg/kg. This is another data set of the same source.
Series [10] is described as follows: in vivo. Particulars: CD-1, mouse, iv, 0.3 mg/kg. The source holds these as a separate data set.
Series [11] can be described thus: in vivo. Particulars: CD-1, mouse, po, 10 mg/kg.
A short description of series [12]: in vivo. The conditions noted are these: CD-1, mouse, po, 10 mg/kg. The source holds these as a separate data set.
The nature of series [13]: in vivo. Particulars: NSG, mouse, tumor, po, 125 mg/kg.
Series [14] can be described thus: in vivo. The conditions noted are these: NSG, mouse, plasma, po, 125 mg/kg.
Series [15] can be described thus: Drug concentration in tumor of NSG mouse xenografted with human SKOV3 cells at 200 mg/kg, po BID measured after 12 hrs by LC-MS analysis. The conditions noted are these: read-out: Drug uptake. The class given is ADME, organism-based, Neoplasm, SK-OV-3.
The nature of series [16]: Drug concentration in plasma of NSG mouse xenografted with human SKOV3 cells at 200 mg/kg, po BID measured after 12 hrs by LC-MS analysis. Type of series: ADME, organism-based, SK-OV-3.
The nature of series [17]: in vivo. Particulars: NSG, mouse, tumor, po, 125 mg/kg. The source holds these as a separate data set.
Series [18] can be described thus: in vivo. The conditions noted are these: NSG, mouse, plasma, po, 125 mg/kg. This is another data set of the same source.
Series [19] can be described thus: in vitro. Particulars: rat, liver microsomes.

Regarding `CCC(c1nc2cc(Cl)ccc2[nH]1)[C@H]1[C@@H]2C[C@@H](c3ccnc4ccc(F)cc34)C[C@@H]21` (stereo partly specified), the concentration at 24 h amounted to 500 nM in series [1] and 1900 nM in series [2]. In addition, the CLint scaled (in general, the rate of metabolic loss divided by the concentration) at 0.75 h, 1 µM in the series “in vitro [3]” amounted to 17 mL/min/kg.
For the molecule `C[C@H](C(=O)Nc1ccc(Cl)cc1)[C@H]1CC[C@@H](c2ccnc3ccc(F)cc32)CC1`, the concentration at 12 h in [4] amounted to 610 nM; in series [5], 60 nM. In addition, in [6], the AUC (in general, the area under the concentration-time curve, a measure of exposure) at 168 h turned out to be 95 µM·h. Further, the clearance – broadly, the rate of elimination divided by the concentration – at 24 h in “in vivo [7]” was 33.3 mL/min/kg. Further, the Vd (commonly the apparent volume that relates the amount in the body to the concentration in plasma or blood) at 24 h in the series “in vivo [8]” is 4.5 L/kg. The half-life (as a rule, the time needed for the level to fall by half in the phase considered) at 24 h in “in vivo [9]” was 1.57 h. In addition, in the series “in vivo [10]”, the AUC(0-inf) (in general, total exposure, with the tail of the curve extrapolated) at 24 h was found to be 0.37 µM·h. Also, the Cmax (usually the peak of the concentration-time curve) at 24 h in the series “in vivo [11]” is 4100 nM. Moreover, the bioavailability – broadly, dose-corrected exposure relative to a reference, in per cent – at 24 h in “in vivo [12]” is 39%. The concentration at 120 h in “in vivo [13]” is 900 nM; in “in vivo [14]” it was 20 nM. In the series “in vitro [3]”, the CLint scaled at 0.75 h, 1 µM was 28 mL/min/kg.
As to `NS(=O)(=O)NCCNc1nonc1C(=NO)Nc1ccc(F)c(Br)c1` [EPACADOSTAT], the concentration at 12 h stood at 5000 nM in [15] and 690 nM in series [16]. This molecule gave a clearance at 24 h in “in vivo [7]” of 53.3 mL/min/kg. Moreover, in the series “in vivo [8]”, the Vd at 24 h stood at 7.5 L/kg. In the series “in vivo [9]”, the half-life at 24 h is 1.6 h. In “in vivo [10]”, this molecule returned an AUC(0-inf) at 24 h of 0.21 µM·h. The molecule also came in with a Cmax at 24 h in the series “in vivo [11]” of 2000 nM. For the same molecule, the bioavailability at 24 h in “in vivo [12]” amounted to 50%. Also, the concentration at 120 h in “in vivo [17]” is 3200 nM; in the series “in vivo [18]”, 100 nM. The molecule further gave a CLint scaled at 0.75 h, 1 µM in the series “in vitro [19]” of 32 mL/min/kg.
